Data as given in patent publication US20110104289A1, “METHOD AND PHARMACEUTICAL COMPOSITION FOR OBTAINING THE PLASMATIC PROGESTERONE LEVELS REQUIRED FOR DIFFERENT THERAPEUTIC INDICATIONS” (POSI VISIONARY SOLUTIONS LLP, priority 2008, published 2011).

Experiment: Progesterone plasma levels after intramuscular-type injection of injectable aqueous suspension of progesterone particles
Assay type: in vivo, post-menopausal women
Settings: female, human, humans, across the dosing schemes (100-300 mg, single or repeated injection), read-out: maximum plasma concentrations (Cmax)
Protocol: 12 post-menopausal women were administered with a 100 mg single injection of progesterone spherical microparticles, in the form of an injectable aqueous suspension. Obtained plasma levels are illustrated in FIG. 1, wherein progesterone plasma concentrations are observed to be maintained up to 7 days in suitable levels for several therapies requiring said progesterone concentrations. 12 post-menopausal women were administered with a single 200 mg injection of progesterone spherical microparticles in the form of an injectable aqueous suspension. Obtained plasma levels are illustrated in FIG. 2, wherein progesterone plasma concentrations are observed to be maintained up to 7 days in suitable levels for several therapies requiring said progesterone concentrations and described in page 2. Four 200 mg repeated injections of progesterone spherical microparticles were administered in the form of an injectable aqueous suspension to 15 post-menopausal women. Obtained plasma levels are illustrated in FIG. 3, wherein progesterone plasma concentrations are observed to be maintained up to 7 days in suitable levels for several therapies requiring said progesterone concentrations and described in page 2. Four 300 mg repeated injections of progesterone spherical microparticles were administered in the form of an injectable aqueous suspension to 13 post-menopausal women. […]

Cmax: 12 to 42 ng/mL
Compound: CC(=O)[C@H]1CC[C@H]2[C@@H]3CCC4=CC(=O)CC[C@]4(C)[C@H]3CC[C@]12C [progesterone]
